# In US20200121801A1, “DRUG DELIVERY CONJUGATES CONTAINING UNNATURAL AMINO ACIDS AND METHODS FOR USING” (priority 2012, published 2020):
# Key:
# [1] = system: adjuvant-induced arthritis; assay: Adjuvant-induced arthritis (AIA) model
# Protocol: METHOD. Adjuvant-Induced Arthritis (AIA) Model. Female Lewis rats are fed a folate-deficient diet (Harlan Teklad, Indianapolis, Ind.) for 9-10 days prior to arthritis induction. The adjuvant-induced arthritis (AIA) is induced by intradermal inoculation (at the base of tail) of 0.4-0.5 mg of heat-killed Mycobacteria butyricum (BD Diagnostic Systems, Sparks, Md.) in 100 μL light mineral oil (Sigma). Ten days after arthritis induction, paw edema (degree of arthritis) in rats is assessed using a modified arthritis scoring system: 0=no arthritis; 1=swelling in one type of joint; 2=swelling in two types of joint; 3=swelling in three types of joint; 4=swelling of the entire paw. A total score for each rat is calculated by summarizing the scores for each of the four paws, giving a maximum score of 16 for each rat. On Day 10 post arthritis induction, rats with a total arthritis score of […] were removed from the study and the remaining rats are distributed evenly across the control and treatment groups (n=5 for all groups except that n=2-3 for healthy controls). All treatments are started on Day 10 unless indicated otherwise. Rat paws are also evaluated radiographically to assess and determine bone damage.
# EXAMPLE. […] Starting 9 days after induction, rats with developing AIA are distributed according to arthritis scores into three groups (n=5): (1) the untreated AIA control, (2) the EC1669 treated group, and (3) the EC1669 plus EC0923 competition group. All treatments last for 2 consecutive weeks. The animals in the AIA control group are left untreated. The animals in the EC1669 treatment group are given twice-a-week subcutaneous doses of EC1669 at a dosage of 375 nmol/kg. The animals in the EC1669 plus EC0923 group are given twice-a-week subcutaneous doses of EC1669 at a dosage of 375 nmol/kg in conjunction to EC0923 at a dosage of 187.5 μmol/kg.
# EXAMPLE. […] CellCept is a prodrug of mycophenolic acid, an immunosuppressant drug used to prevent organ rejection in transplantation. CellCept is activated in vivo and releases its active product that can inhibit T cell proliferation and interfere with leukocyte adhesion to endothelial cells. To test the combination effect of EC1669 and CellCept, rats with developing AIA are distributed according to arthritis scores into four groups (n=5): (1) the untreated AIA control, (2) the EC1669 treated group, (3) the CellCept treated group, and (4) the EC1669 and CellCept combination group. All treatments start on day 9 after AIA induction and last 2 consecutive weeks. The animals in the AIA control group are untreated. The animals in the EC1669 treatment group are given weekly subcutaneous doses of EC1669 at a dosage of 1000 nmol/kg. The animals in the CellCept treatment group are given daily oral doses of CellCept at a dosage of 30 mg/kg, 5 days per week. The animals in the EC1669 and CellCept combination treatment group are given weekly subcutaneous doses of EC1669 at a dosage of 1000 nmol/kg and daily oral doses of CellCept at a dosage of 30 mg/kg, 5 days per week.
# [2] = system: experimental autoimmune encephalomyelitis; assay: Autoimmune encephalomyelitis (EAE) model; type: in vivo, rats
# Protocol: METHOD. Autoimmune Encephalomyelitis (EAE) Model. EAE is induced in rats by immunization against 25 μg of guinea pig myelin basic protein (MBP) formulated with CFA containing 1 mg of grounded Mycobacterium tuberculosis H37Ra. Pertussis toxin is given intraperitoneally (1 μg/rat) to enhance the organ-specific autoimmunity. Starting 8 days after induction, rats are divided into […]: (1) untreated control (n=8), (2) test compound (n=7), and (3) test compound plus competitor compound (n=7), such as EC0923 competition. All treatments start on day 8 after EAE induction. The animals in the EAE control group are left untreated. […] The clinical severity of EAE is monitored on a daily basis and graded on a scale of 0 to 5 per animal. The clinical signs of ascending paralysis of EAE rats are divided into a 0-5 scale: 0=No disease, 0.5=distal limp tail, 1=limp tail, 2=mild paraparesis; ataxia-weakened hind limbs, 3=moderate paraparesis; hind limbs paresis, 4=complete hind limb paralysis, 5=complete hind limb paralysis and incontinence (euthanasia). On day 16, the animals are euthanized and brain and spinal cords are fixed in formalin for histology.
# [3] = 375 nmol/kg s.c. twice-a-week, 2 weeks
smiles,measurement,setting,value
N=c1[nH]c(N)nc2ncc(CNc3ccc(C(=O)N[C@@H](CCC(=O)NNC(=O)OCCSSC[C@@H](NC(=O)[C@H](CCC(=O)NC[C@H](O)[C@@H](O)[C@H](O)[C@H](O)CO)NC(=O)[C@@H](CCC(=O)O)NC(=O)[C@H](CCC(=O)NC[C@H](O)[C@@H](O)[C@H](O)[C@H](O)CO)NC(=O)[C@@H](CCC(=O)O)NC(=O)[C@H](CCC(=O)NC[C@H](O)[C@@H](O)[C@H](O)[C@H](O)CO)NC(=O)CC[C@H](NC(=O)c4ccc(NCc5cnc6nc(N)[nH]c(=O)c6n5)cc4)C(=O)O)C(=O)O)C(=O)O)cc3)nc12 [EC1669],reduction in paw swelling,"[1]; 250 nmol/kg, biw",64%
same,whole animal toxicity (body weight),[1]; 375 nmol/kg,does not exhibit whole animal toxicity
same,alleviation of bone damage compared to control,[1]; [3],~80%
same,alleviation of paw swelling compared to control,[1]; [3],~80%
same,reduction in paw swelling,"[1]; 500 nmol/kg, biw",81%
same,reduction in paw swelling,"[1]; 1000 nmol/kg, siw",44%
same,anti-arthritic activity with folate competitor EC0923,[1]; EC0923 187.5 μmol/kg co-dosed,competable (blocked)
same,therapeutic effect with folate receptor competitor EC0923,[2]; excess EC0923,blocked
same,efficacy against EAE (clinical score),[2]; s.c. every other day from day 8,effectively suppresses the neurological symptoms
same,treatment-related weight loss,[2]; when dosed alone,not observed
